In one assay the target is PDGFRα (Homo sapiens, UniProt P16234). The experiment in a line: Kinase IC50, PDGFRα.
The test system of a further assay is CCRF-CEM. The experiment in a line: NCI-60 cell line panel: CCRF-CEM. It is filed as cell-based. Particulars: Leukemia; for IC50: Homo sapiens; for TGI: total growth inhibition. On the procedure:
(§1) It was carried out at the NCI, Bethesda, MD, USA, utilizing their standard protocol.

The test system of a further assay is HCT-116. The experiment in a line: NCI-60 cell line panel: HCT-116. Format: cell-based. The conditions noted are these: Colon Cancer; for TGI: total growth inhibition; for IC50: Homo sapiens. Here is the method: as §1
In a further assay the target is FMS (Homo sapiens, UniProt P07333). The assay is described as follows: Kinase IC50, FMS.
Another assay addresses Flt3 (Homo sapiens, UniProt P36888). The experiment in a line: Kinase IC50, Flt3.
A further assay deals with SF-268. The assay is described as follows: NCI-60 cell line panel: SF-268. Format: cell-based. Particulars: CNS Cancer; for TGI: total growth inhibition; for IC50: Homo sapiens. Here is the method: as §1
A further assay concerns the target TrkA (Homo sapiens, UniProt P04629). The assay is described as follows: Kinase IC50, TrkA.
Another assay has as its target Flt4 (Homo sapiens, UniProt P35916). The assay is described as follows: Kinase IC50, Flt4.

What is called IC50 is the concentration that gives 50% inhibition. Higher therefore signals weaker potency in that assay. Usually TGI stands for the concentration giving total growth inhibition.

The structures appear in SMILES notation.

Sequence of FMS (P07333 20-972): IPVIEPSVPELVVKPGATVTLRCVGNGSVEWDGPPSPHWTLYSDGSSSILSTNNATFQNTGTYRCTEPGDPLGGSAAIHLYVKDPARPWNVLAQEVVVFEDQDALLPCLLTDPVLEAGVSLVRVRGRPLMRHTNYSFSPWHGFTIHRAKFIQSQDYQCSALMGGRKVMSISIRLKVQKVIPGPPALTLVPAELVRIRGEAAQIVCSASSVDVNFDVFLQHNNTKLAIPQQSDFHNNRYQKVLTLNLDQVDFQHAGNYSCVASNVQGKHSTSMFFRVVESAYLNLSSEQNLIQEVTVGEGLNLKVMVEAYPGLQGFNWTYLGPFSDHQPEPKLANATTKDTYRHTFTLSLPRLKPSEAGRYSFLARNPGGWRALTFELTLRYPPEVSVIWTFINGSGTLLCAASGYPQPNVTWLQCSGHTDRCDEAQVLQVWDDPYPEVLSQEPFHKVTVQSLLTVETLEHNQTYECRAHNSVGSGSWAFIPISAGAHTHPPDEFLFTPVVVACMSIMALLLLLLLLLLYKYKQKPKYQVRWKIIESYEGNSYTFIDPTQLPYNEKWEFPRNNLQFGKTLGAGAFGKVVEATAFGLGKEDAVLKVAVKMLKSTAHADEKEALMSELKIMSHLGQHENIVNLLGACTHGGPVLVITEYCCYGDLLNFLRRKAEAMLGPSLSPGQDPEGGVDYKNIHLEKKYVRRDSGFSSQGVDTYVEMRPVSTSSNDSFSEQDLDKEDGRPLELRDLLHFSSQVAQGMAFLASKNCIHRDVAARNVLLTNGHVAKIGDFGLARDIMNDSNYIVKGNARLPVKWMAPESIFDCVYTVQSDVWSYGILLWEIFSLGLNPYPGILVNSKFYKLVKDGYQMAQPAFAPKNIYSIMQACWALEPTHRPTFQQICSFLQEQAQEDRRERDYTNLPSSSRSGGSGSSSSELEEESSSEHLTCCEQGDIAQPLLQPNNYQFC
Sequence of Flt4 (P35916 25-1363): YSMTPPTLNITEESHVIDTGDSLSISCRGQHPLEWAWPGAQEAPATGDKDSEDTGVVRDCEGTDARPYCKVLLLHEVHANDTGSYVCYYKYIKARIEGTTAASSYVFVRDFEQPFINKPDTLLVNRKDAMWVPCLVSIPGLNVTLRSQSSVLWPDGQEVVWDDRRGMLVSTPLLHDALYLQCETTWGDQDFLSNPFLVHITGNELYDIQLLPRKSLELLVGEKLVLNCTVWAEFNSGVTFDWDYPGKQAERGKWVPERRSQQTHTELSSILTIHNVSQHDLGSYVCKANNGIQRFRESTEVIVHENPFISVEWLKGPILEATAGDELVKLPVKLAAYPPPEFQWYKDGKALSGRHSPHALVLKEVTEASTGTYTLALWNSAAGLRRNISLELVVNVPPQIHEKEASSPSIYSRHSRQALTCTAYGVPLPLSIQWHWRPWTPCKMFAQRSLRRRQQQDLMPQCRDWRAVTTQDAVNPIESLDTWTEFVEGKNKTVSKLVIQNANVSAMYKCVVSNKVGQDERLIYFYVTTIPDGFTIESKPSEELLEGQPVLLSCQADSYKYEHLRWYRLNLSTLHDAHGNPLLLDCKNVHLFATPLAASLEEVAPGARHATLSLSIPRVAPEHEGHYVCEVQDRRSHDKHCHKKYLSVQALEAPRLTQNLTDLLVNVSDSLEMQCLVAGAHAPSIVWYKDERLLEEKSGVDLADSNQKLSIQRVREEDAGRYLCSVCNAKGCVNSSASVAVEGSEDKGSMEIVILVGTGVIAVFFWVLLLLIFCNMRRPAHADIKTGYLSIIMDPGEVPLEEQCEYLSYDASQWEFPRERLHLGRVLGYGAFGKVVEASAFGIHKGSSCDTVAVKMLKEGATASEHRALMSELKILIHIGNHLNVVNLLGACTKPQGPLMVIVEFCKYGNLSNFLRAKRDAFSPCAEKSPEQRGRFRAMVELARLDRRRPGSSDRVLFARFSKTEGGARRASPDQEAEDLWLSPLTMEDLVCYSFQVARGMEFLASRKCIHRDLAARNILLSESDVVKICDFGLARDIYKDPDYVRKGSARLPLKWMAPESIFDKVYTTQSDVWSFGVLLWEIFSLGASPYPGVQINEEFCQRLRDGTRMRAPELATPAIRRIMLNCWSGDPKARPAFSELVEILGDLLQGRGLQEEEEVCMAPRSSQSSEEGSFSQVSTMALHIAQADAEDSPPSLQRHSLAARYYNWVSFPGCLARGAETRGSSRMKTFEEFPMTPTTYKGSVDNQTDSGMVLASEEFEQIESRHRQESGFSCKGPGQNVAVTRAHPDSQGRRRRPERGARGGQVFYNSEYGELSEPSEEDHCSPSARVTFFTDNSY
Sequence of Flt3 (P36888 27-993): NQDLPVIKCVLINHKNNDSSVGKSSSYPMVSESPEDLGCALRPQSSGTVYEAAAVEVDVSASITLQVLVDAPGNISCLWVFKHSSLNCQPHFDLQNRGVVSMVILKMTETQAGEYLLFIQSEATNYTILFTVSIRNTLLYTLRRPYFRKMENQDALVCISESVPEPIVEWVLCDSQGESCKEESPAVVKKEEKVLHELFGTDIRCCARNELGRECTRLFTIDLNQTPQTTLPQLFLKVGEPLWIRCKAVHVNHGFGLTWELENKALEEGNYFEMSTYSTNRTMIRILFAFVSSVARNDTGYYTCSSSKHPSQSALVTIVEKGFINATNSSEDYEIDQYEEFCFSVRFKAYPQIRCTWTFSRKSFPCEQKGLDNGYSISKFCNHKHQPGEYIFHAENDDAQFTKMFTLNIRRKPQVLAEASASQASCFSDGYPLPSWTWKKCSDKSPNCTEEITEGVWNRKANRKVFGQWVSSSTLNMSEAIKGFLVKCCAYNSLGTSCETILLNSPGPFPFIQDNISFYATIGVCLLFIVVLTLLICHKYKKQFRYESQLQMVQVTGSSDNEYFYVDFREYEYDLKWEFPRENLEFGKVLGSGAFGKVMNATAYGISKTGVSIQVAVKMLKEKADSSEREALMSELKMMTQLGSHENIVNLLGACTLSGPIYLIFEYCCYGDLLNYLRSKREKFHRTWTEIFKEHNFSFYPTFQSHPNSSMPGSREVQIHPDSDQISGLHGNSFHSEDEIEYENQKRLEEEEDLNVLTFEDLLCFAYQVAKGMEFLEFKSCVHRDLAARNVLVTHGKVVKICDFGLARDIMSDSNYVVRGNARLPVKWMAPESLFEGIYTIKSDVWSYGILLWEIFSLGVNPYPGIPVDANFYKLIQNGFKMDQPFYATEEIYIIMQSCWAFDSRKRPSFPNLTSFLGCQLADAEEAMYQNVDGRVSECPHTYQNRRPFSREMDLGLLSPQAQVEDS
Sequence of PDGFRα (P16234 24-1089): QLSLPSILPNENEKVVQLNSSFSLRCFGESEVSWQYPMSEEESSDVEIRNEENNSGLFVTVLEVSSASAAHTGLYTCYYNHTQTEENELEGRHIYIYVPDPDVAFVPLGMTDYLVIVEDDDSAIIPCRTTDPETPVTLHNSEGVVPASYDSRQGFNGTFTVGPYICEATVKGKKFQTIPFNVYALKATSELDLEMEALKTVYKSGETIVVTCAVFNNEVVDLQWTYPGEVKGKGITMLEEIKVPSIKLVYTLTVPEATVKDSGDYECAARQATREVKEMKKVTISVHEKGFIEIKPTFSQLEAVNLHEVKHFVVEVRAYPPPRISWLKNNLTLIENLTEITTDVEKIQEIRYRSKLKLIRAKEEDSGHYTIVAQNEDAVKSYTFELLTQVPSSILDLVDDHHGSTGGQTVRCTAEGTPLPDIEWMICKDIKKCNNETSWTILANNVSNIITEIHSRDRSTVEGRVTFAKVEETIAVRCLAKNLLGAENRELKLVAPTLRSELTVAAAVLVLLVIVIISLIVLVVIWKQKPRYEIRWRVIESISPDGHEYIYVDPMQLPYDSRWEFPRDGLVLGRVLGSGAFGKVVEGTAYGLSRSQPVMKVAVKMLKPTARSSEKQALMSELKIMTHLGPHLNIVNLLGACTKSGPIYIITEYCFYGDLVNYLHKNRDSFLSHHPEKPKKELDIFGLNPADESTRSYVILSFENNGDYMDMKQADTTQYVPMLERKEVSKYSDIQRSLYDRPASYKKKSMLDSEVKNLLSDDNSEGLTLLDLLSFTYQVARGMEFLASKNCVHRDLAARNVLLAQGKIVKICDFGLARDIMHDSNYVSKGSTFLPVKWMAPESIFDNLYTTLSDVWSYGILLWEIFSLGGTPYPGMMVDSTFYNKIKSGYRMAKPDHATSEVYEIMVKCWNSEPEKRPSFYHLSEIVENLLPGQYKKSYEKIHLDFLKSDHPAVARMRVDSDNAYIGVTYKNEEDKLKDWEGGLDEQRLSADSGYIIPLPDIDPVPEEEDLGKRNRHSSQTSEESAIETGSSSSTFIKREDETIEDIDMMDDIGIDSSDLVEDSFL
Sequence of TrkA (P04629 33-796): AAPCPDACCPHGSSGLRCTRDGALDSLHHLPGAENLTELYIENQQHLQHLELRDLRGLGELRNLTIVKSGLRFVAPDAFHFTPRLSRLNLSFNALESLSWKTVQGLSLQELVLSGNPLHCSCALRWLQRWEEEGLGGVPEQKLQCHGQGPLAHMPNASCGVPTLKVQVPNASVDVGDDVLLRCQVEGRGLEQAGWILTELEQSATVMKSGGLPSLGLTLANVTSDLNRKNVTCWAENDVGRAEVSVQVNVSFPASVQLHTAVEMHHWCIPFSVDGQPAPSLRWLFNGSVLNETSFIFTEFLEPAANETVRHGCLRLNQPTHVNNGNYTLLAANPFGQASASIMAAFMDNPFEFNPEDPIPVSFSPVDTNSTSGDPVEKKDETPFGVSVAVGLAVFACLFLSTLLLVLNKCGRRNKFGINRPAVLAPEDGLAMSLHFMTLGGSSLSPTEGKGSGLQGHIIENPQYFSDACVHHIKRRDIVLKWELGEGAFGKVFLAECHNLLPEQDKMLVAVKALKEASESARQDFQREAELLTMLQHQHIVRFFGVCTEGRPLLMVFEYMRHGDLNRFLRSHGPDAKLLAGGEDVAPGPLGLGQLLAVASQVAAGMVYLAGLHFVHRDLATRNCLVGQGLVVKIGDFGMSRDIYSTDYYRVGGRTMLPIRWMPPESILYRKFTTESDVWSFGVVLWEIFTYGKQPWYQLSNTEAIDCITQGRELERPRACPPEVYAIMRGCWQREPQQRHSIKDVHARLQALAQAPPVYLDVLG

As for `CCN1CCN(c2ccc(NC(=O)Nc3ccc(-c4cc(C(=O)NC)c5ncccc5n4)cc3)cc2C(F)(F)F)CC1` [Compound 13c, 2-(4-(3-(4-(4-Ethylpiperazin-1-yl)-3-(trifluoromethyl)phenyl)ureido)phenyl)-N-methyl-1,5-naphthyridine-4-carboxamide], the half-maximal inhibitory concentration (IC50) worked out at 992.3 ± 0.6 nM at PDGFRα; 460 nM in the assay with CCRF-CEM; 1120 nM with HCT-116; 73.9 ± 0.2 nM against FMS; 483.6 ± 0.7 nM against Flt3; 3090 nM in the assay on SF-268. For the same molecule, the IC50 came to 958 nM on TrkA and 945.1 ± 0.5 nM against Flt4. The total growth inhibition concentration (TGI) worked out at 1270 nM with CCRF-CEM, 4830 nM in the assay with HCT-116 and 7000 nM with SF-268. Also, on FMS, the “potency against FMS kinase compared with sorafenib” value is “more potent than the known drug sorafenib”.
On to `CCN1CCN(c2ccc(NC(=O)Nc3ccc(-c4cc(C(=O)NC(C)C)c5ncccc5n4)cc3)cc2C(F)(F)F)CC1` [Compound 13f, 2-(4-(3-(4-(4-Ethylpiperazin-1-yl)-3-(trifluoromethyl)phenyl)ureido)phenyl)-N-isopropyl-1,5-naphthyridine-4-carboxamide], for which the results for the IC50 in the assay with CCRF-CEM, with HCT-116 and with SF-268 were 1010 nM, 640 nM and 3560 nM, respectively. For the same molecule, the TGI in the assay on CCRF-CEM is 3100 nM; with HCT-116 it was 1300 nM; in the assay with SF-268, 10900 nM.
As to `CNC(=O)c1cc(-c2ccc(NC(=O)Nc3ccc(N4CCN(C)CC4)c(C(F)(F)F)c3)cc2)nc2cccnc12` [Compound 13b, N-Methyl-2-(4-(3-(4-(4-methylpiperazin-1-yl)-3-(trifluoromethyl)phenyl)ureido)phenyl)-1,5-naphthyridine-4-carboxamide], the IC50 against PDGFRα came out at 972.4 ± 1.3 nM; with CCRF-CEM it was 3160 nM; in the assay with HCT-116, 4090 nM; against FMS it was 21.5 ± 0.2 nM; against Flt3 it was 362 ± 0.4 nM; with SF-268, 17500 nM. Besides, half-maximal inhibition on Flt4 (IC50) required 366.3 ± 0.5 nM. Further, the TGI in the assay with CCRF-CEM was found to be 74100 nM; in the assay on HCT-116 it was 75600 nM; with SF-268, 39200 nM. At FMS, the “potency against FMS kinase compared with sorafenib” value is on record as “more potent than the known drug sorafenib”. For the same molecule, at FMS (against the most sensitive kinases), the “potency and selectivity against FMS kinase (IC50 values)” value is “high potency and selectivity against FMS kinase”.
For `CC(C)NC(=O)c1cc(-c2ccc(NC(=O)Nc3ccc(N4CCN(C)CC4)c(C(F)(F)F)c3)cc2)nc2cccnc12` [Compound 13e, N-Isopropyl-2-(4-(3-(4-(4-methylpiperazin-1-yl)-3-(trifluoromethyl)phenyl)ureido)phenyl)-1,5-naphthyridine-4-carboxamide], the values for the IC50 with CCRF-CEM, in the assay with HCT-116 and with SF-268 were 740 nM, 690 nM and 700 nM, respectively. In addition, the TGI in the assay with CCRF-CEM worked out at 1980 nM; in the assay on HCT-116 it was 1350 nM; with SF-268 it was 1620 nM.

The values are drawn from patent US20240308996A1, “PYRIDOPYRIDINES AND DERIVATIVES THEREOF AS SELECTIVE KINASE INHIBITORS” (University of Sharjah, priority 2023, published 2024).
